The test system of one series is myocardial cGMP. The experiment in a line: Myocardial cyclic nucleotide levels. The format is in vivo, mouse. The conditions noted are these: for whole myocardial cGMP: acute intravenous administration. The source says: Hearts were washed in ice-cold PBS, homogenized in 6% trichloroacetic acid, centrifuged and extracted with water-saturated ether. The aqueous layer was transferred, vacuum dried, and the pellet resuspended in sodium acetate buffer for cAMP and cGMP enzyme immunoassay (Amersham Pharmacia Biotech, Buckinghamshire, UK).

Series [1] relates to C57bl6 mice, isoproterenol-stimulated heart. The experiment in a line: Acute isoproterenol-stimulated contractility in intact mice (pressure-volume relations). Type of series: in vivo, mouse. The following applies: acute intravenous administration. As to the method: Isoproterenol (ISO: 20 ng/kg/minutes i.v.×5 min) with or without PDE5A inhibitor was given to anesthetized intact mice, and in vivo heart function assessed by pressure-volume relations at a fixed atrial pacing rate of 600-650 min^−1. Data were measured at baseline, with ISO, re-baseline, PDE5A-inhibition, and PDE5A inhibition+ISO. The ISO-only response was highly reproducible.

Series [2] deals with C57BL/6 mice, pressure overload by transverse aortic constriction. The experiment in a line: In vivo cardiac hemodynamics by pressure-volume analysis, TAC mice. Further details: species or system mouse. The following applies: 3 wk TAC, compared with sildenafil results. Here is the method:
(§1) Pressure overload was produced by transverse aortic constriction.
Transthoracic two-dimensional guided M-mode echocardiography was performed in non-anesthetized mice. Measurements were done using an echocardiography system, the SEQUOIA C256 (Siemens, Munich, Del.) with the 15 MHz linear-array transducer. Intact heart hemodynamic analysis was performed as described^90. These studies employed a four-electrode pressure-volume catheter (model SPR-839, Millar Instruments) placed through the left ventricular apex in the open chest anesthetized animal and positioned along the longitudinal axis to record chamber volume by impedance and pressure by micromanometry.
All hemodynamic data were recorded using custom developed software, digitizing signals at 2 KHz. End-diastolic and end-systolic volumes were the average of volumes measured during isovolumic contraction and relaxation, respectively. ESP was the pressure at maximal chamber elastance (P/V ratio)^1. EDP was the diastolic pressure at the lower right hand corner of the pressure-volume loop. Cardiac output was determined from a perivascular flow probe (Transonics, Ithica, N.Y.) placed around the thoracic aorta. Ea was equal to the ratio of end-systolic pressure divided by stroke volume. The volume catheter signal was calibrated for both gain and offset. Gain was determined by setting the catheter-derived cardiac output (equal to pressure-volume loop width times heart rate) to that obtained from the calibrated flow probe value. Offset was determined using the hypertonic saline method Ventricular power was equal to the instantaneous product of pressure times flow, and the peak power was divided by EDV to obtain the power index PMXI^79. […] The slope of this relation Ees was normalized by heart mass and expressed per gm heart mass. Msw was derived from the linear relation between stroke work and EDV from the same set of variably loaded cardiac cycles used to derive Eesn, and is another load-independent assessment of systolic contractile function^4. Tau was obtained from the model: P=Po+ae^−t/□ . . . fitting data during isovolumic relaxation. dP/dt was derived from a digital filter (5-point weighted slope). PFR/EDV was derived from the maximal first derivative of the volume signal during early diastole, divided by EDV.

Series [3] has the same test system. The experiment in a line: TAC-induced cardiac hypertrophy, remodeling and fibrosis (heart weight/tibia length, histology). The conditions noted are these: TAC mice, concurrent oral treatment. Type of series: in vivo, mouse.
Excerpt: TAC induced marked heart chamber and cellular hypertrophy (+100% by 3-weeks) that progressed to chamber dilation with reduced fractional shortening after 9 weeks. […] TAC induced a time-dependent increase in myocardial fibrosis and myocyte hypertrophy and both were suppressed by PDE5A inhibition (FIG. 1C, e.g. 67% reduction in fibrosis in 9-week hearts, p<0.0001).
as §1
Hearts were fixed with 10% formalin overnight, then embedded in paraffin, sectioned at 5 μm thickness and stained with PAS methenamine. Cardiomyocyte diameter and interstitial collagen fraction were determined using computer-assisted image analysis (Adobe Photoshop 5.0, NIH Image J), with the observer blinded as to tissue source. At least 4-5 different hearts, with five separate fields of cells (total 50-70 cells for each heart) were quantified for cellular analysis.

The test system of series [4] is C57bl6 mice, isoproterenol-induced hypertrophy. The experiment in a line: Chronic isoproterenol infusion (osmotic pump) cardiac hypertrophy. The conditions noted are these: 2 weeks. The format is in vivo, mouse. As to the method:
Acute increases in cardiac chamber contractility were induced by isoproterenol infusion in control C57b16 mice. The increase in cardiac systolic function was assessed by in vivo pressure-volume relations (FIG. 11E), and is reflected by a widening of the loop and shift of the upper left corner to the left. […] This supports the myocyte effects at the intact heart level. Furthermore, if isoproterenol is infused chronically by means of an implanted osmotic mini-pump, the heart responds by increasing the cardiac mass (hypertrophy) and with some dilation. This is shown for a group of control C57b16 mice (FIGS. 12A and 12B).

In a further series the test system is fetal gene expression. The experiment in a line: Cardiac fetal gene expression (RNA dot blot) in TAC hearts. The format is in vivo, mouse. The conditions noted are these: 3 wk TAC. As to the method:
RNA samples were prepared from snap-frozen hearts using a ready-to-use reagent for the isolation of total RNA TRIZOL reagent (Life Technology, Gaithersburg, Md.) according to the manufacturer's protocol. RNA dot-blot analysis was performed using a published protocol with a set of oligonucleotide probes^59. Data are shown normalized to GAPDH measured for each respective sample.

A further series addresses purified PDE5A (Homo sapiens, UniProt O76074). The conditions noted are these: cited from earlier work.
A further series concerns ex vivo vascular rings. The following applies: cited from earlier work.
Series [5] deals with isolated adult murine myocytes. The series can be described thus: Isoproterenol-stimulated contraction of isolated adult cardiac myocytes. Type of series: cell-based, mouse. The conditions noted are these: ODQ plus sildenafil plus ISO. As to the method:
Louis, Mo.) for 6-7 min. Ventricles were gently chopped, filtered (150μ mesh), centrifuged (500 RPM×1 min), and rinsed in Tyrode's solution with increasing calcium (final 1.8 mM Ca^2+). Cells were incubated with 5 μM Indo-1 AM (Molecular Probes), rinsed, and studied at 27° C. by field stimulation in an inverted fluorescence microscope (Diaphot 200; Nikon, Inc). Sarcomere length (IonOptix, MA) and whole cell calcium transients were measured.

Series [6] relates to total cGMP-esterase activity. The series can be described thus: cGMP-esterase (low Km cGMP phosphodiesterase) activity of heart and isolated myocytes. Type of series: biochemical, mouse.
For the next series, the system named is PKG-1. The experiment in a line: PKG-1 activity in isolated adult myocytes. Type of series: cell-based, mouse. As to the method: After 10 min, cells were lysed and PKG-1 activity determined.
The conditions of series [7]: human, cited from earlier work.
Setting [8] is: inhibitor combined with isoproterenol.

As a reminder, the IC50 is the concentration needed to halve the response being measured.

Values joined by “and” are separate entries in the source; they are usually repeats but may differ in a detail not shown here. Equal entries are not always repeated.

For the compound `CC[C@H](C)[C@@H]1NC(=O)[C@H](CCCNC(=N)N)NC(=O)[C@H](CC(=O)O)NC(=O)[C@H](CCSC)NC(=O)[C@H](CCCNC(=N)N)NC(=O)CNC(=O)CNC(=O)[C@H](Cc2ccccc2)NC(=O)[C@@H](NC(=O)[C@H](CO)NC(=O)[C@H](CO)NC(=O)[C@H](CCCNC(=N)N)NC(=O)[C@H](CCCNC(=N)N)NC(=O)[C@H](CC(C)C)NC(=O)[C@@H](N)CO)CSSC[C@@H](C(=O)N[C@@H](CC(N)=O)C(=O)N[C@@H](CO)C(=O)N[C@@H](Cc2ccccc2)C(=O)N[C@@H](CCCNC(=N)N)C(=O)N[C@@H](Cc2ccc(O)cc2)C(=O)O)NC(=O)CNC(=O)[C@H](CC(C)C)NC(=O)CNC(=O)[C@H](CO)NC(=O)[C@H](CCC(N)=O)NC(=O)[C@H](C)NC(=O)CNC1=O` [ANP, atrial natriuretic peptide], the “whole myocardial cGMP” value in the series on myocardial cGMP is given as “marked rise in myocardial cGMP”. Moreover, the “isoproterenol-stimulated contractility in intact heart” value in [1] is “had no effect on the ISO response in the intact heart”.
Turning to `CCCc1nn(C)c2c(NCc3ccc(OC)c(Cl)c3)nc(COCC(=O)O)nc12` [EMD 360527, [7-(3-Chloro-4-methoxy-benzylamino)-1-methyl-3-propyl-1H-pyrazolo[4,3-d]pyrimidin-5-ylmethoxy]-acetic acid], the “cardiac function by pressure-volume analysis” value in [2] was “near identical physiologic results”. Besides, the “TAC-induced hypertrophy and chamber remodeling” value in [3] was “yielded identical findings”; in series [3] (listed as EMD360527), “prevented the development of both cardiac hypertrophy and accompanying chamber dilation and remodeling”. Moreover, the “total myocardial cGMP” value in the series on myocardial cGMP (TAC hearts, chronic co-treatment) is reported as “slight decline”. For the same compound, the “whole myocardial cGMP” value in the series with myocardial cGMP is “negligible effect”. Further, in [4], the “development of cardiac hypertrophy” value was “markedly inhibited the development of cardiac hypertrophy”. Besides, the fetal gene expression result in the series with fetal gene expression was “reversed the TAC-induced rise in fetal gene expression”. Besides, the IC50 is roughly 10 nM on purified PDE5A and 1000 nM in the series with ex vivo vascular rings.
As to `O=c1onc2cnc3ccccc3n12` [ODQ], in [5], the “blunting of ISO response by sildenafil when sGC is inhibited” value is reported as “prevented”.
`CN1CC(=O)N2[C@H](c3ccc4c(c3)OCO4)c3[nH]c4ccccc4c3C[C@@H]2C1=O` [tadalafil]: the “proportion of total cGMP-esterase activity attributable to PDE5” value in series [6] (3 week TAC hearts) is on record as roughly 60%. In addition, in [6] (sham control hearts (baseline)), the “percent of total cGMP-esterase activity blocked by co-incubation” value is recorded as “approximately 30%”. Moreover, in the series with PKG-1 (basal conditions, inhibitor alone), the “enhancement of PKG-1 activity” value is roughly 10%. For the same compound, in the series on PKG-1 (setting [8]), the “rise in PKG-1 activity” value is 50% and 70%; the “rise in PKG-1 activity over ISO alone” value stood at 30%. Besides, the “time of peak plasma concentration post-dose” value in [7] (in vivo, po) is on record as “two”. Moreover, in series [7], the “apparent oral clearance (CL/F)” value is 2.48 L/h and the mean elimination half-life result is “about 17.5 h”.

Values taken from patent US8299083B2, “PDE5 inhibitor compositions and methods for treating cardiac indications” (The Johns Hopkins University, priority 2004, dated 2012).
